Results as given in patent US20250163104A1, “MACROCYCLIC IMMUNOMODULATORS” (priority 2021, published 2025).
Where a SMILES comes first, the peptide text is derived from it. Bridges are numbered along the chain shown (N, C = ends). [ ]: non-standard residue; d: D form. The star is where a group is joined. ξ: configuration not given here. Phe(4-COOH) = N[C@@H](Cc1ccc(C(=O)O)cc1)C(=O)O; Bip = N[C@@H](Cc1ccc(-c2ccccc2)cc1)C(=O)O; Phe(3-Me) = Cc1cccc(C[C@H](N)C(=O)O)c1; 4Pal = N[C@@H](Cc1ccncc1)C(=O)O; Cha = N[C@@H](CC1CCCCC1)C(=O)O; Cit = NC(=O)NCCC[C@H](N)C(=O)O; Ile(3ξ) = CCC(C)[C@H](N)C(=O)O; Thr(3ξ) = CC(O)[C@H](N)C(=O)O; Phg = N[C@H](C(=O)O)c1ccccc1; Carboxymethyl = O=C(O)C*; Orn = NCCC[C@H](N)C(=O)O; Pra = C#CC[C@H](N)C(=O)O; Dab = NCC[C@H](N)C(=O)O; Nva = CCC[C@H](N)C(=O)O; Abu = CC[C@H](N)C(=O)O; Dap = NC[C@H](N)C(=O)O; Bn = c1ccc(C*)cc1; Propargyl = C#CC*

What follows are molecules tested against T1, human PD-1 / PD-L1-Ig binding on Jurkat cell line over-expressing human PD-1 (Jurkat-PD-1) (Homo sapiens, UniProt Q15116) (assay: Jurkat-PD-1 Cell Binding High-Content Screening Assay (CBA)). Settings: Jurkat HPD1_PDL1 IC50, Jurkat-PD-1 cells, PE-labeled PD-L1-Ig 20 nM final.
T1 construct: expressed in transfected cells; host or cells: Jurkat
Type: cell-based
How it was run: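 Jurkat-hPD-1 cells in DMEM with 10% fetal calf serum receive test compound and are held at 37° C for 2 h. PE-labeled PD-L1-Ig is added at 20 nM final and left for 1 hour. Cells are then fixed and Hoechst-stained, and binding is measured by imaging.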

T1 sequence (Q15116 25-288): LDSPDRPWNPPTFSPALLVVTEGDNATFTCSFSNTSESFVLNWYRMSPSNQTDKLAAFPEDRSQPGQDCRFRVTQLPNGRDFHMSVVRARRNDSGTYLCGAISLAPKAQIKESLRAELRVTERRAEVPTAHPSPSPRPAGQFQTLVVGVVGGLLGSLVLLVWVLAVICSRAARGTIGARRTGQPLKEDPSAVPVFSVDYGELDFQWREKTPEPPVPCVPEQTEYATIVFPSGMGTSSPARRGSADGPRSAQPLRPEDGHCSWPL

Compound	IC50 [nM]
CC(C)C[C@H]1NC(=O)[C@H](CCCN)NC(=O)[C@H](C(C)C)NC(=O)[C@H](Cc2ccc(-c3ccccc3)cc2)NC(=O)[C@H](Cc2ccc(OCc3ccccc3)cc2)NC(=O)[C@H](Cc2c[nH]c3ccccc23)NC(=O)[C@H](CC(=O)O)NC(=O)[C@H](Cc2ccc(OCC(=O)O)cc2)NC(=O)[C@H](CN)NC(=O)CSC[C@@H](C(=O)N[C@@H](C)C(N)=O)NC(=O)[C@H]([C@@H](C)O)NC(=O)[C@H](C(C)C)NC(=O)[C@H](CC2CCCCC2)NC(=O)[C@H](CCN)NC1=O [Compound 1529] ({CH2CO}-[Dap]Y(Carboxymethyl)DWY(Bn)[Bip]V[Orn][dL][Dab][Cha]VTCA-NH2; thioether N-14)	43.5

Same assay, conditions: Jurkat-PD-1 cells, PE-labeled PD-L1-Ig 20 nM final; read-out: Jurkat HPD1_PDL1 IC50

IC50 [nM]	Compound
3.4	C#CCOc1ccc(C[C@@H]2NC(=O)[C@H](Cc3cccc(C)c3)NC(=O)[C@H](CC(=O)O)NC(=O)[C@H](Cc3ccc(OCC(=O)O)cc3)NC(=O)[C@H](CC)NC(=O)CSC[C@@H](C(=O)N[C@@H](CCN)C(N)=O)NC(=O)[C@H](CCC(=O)O)NC(=O)[C@H](C(C)C)NC(=O)[C@H](CC3CCCCC3)NC(=O)[C@H](CCN)NC(=O)[C@@H](CC(C)C)NC(=O)[C@H](CCCN)NC(=O)[C@H](Cc3ccc(OCC(=O)O)cc3)NC(=O)[C@H](Cc3ccc(-c4ccccc4)cc3)NC2=O)cc1 [Compound 1840] ({CH2CO}-[Abu]Y(Carboxymethyl)D[Phe(3-Me)]Y(Propargyl)[Bip]Y(Carboxymethyl)[Orn][dL][Dab][Cha]VEC[Dab]-NH2; thioether N-14)
7.2	CC(C)C[C@H]1NC(=O)[C@H](CCCN)NC(=O)[C@H](CN)NC(=O)[C@H](Cc2ccc(-c3ccccc3)cc2)NC(=O)[C@H](C(C)C)NC(=O)[C@H](Cc2c[nH]c3ccccc23)NC(=O)[C@H](CC(=O)O)NC(=O)[C@H](Cc2ccc(OCC(=O)O)cc2)NC(=O)[C@H](CN)NC(=O)CSC[C@@H](C(=O)N[C@@H](C)C(N)=O)NC(=O)[C@H]([C@@H](C)O)NC(=O)[C@H](C(C)C)NC(=O)[C@H](CC2CCCCC2)NC(=O)[C@H](CCN)NC1=O [Compound 1376]
29.2	CC[C@H](C)[C@@H]1NC(=O)[C@H](Cc2ccc(-c3ccccc3)cc2)NC(=O)[C@H](c2ccccc2)NC(=O)[C@H](Cc2c[nH]c3ccccc23)NC(=O)[C@H](CC(=O)O)NC(=O)[C@H](Cc2ccc(OCC(=O)O)cc2)NC(=O)[C@H](CN)NC(=O)CSC[C@@H](C(=O)N[C@@H](C)C(N)=O)NC(=O)[C@H]([C@@H](C)O)NC(=O)[C@H](C(C)C)NC(=O)[C@H](CC2CCCCC2)NC(=O)[C@H](CCN)NC(=O)[C@@H](CC(C)C)NC(=O)[C@H](CCCN)NC1=O [Compound 1728] ({CH2CO}-[Dap]Y(Carboxymethyl)DW[Phg][Bip]I[Orn][dL][Dab][Cha]VTCA-NH2; thioether N-14)
17.1	CC(C)C[C@@H]1NC(=O)[C@H](CCN)NC(=O)[C@@H](CC(C)C)NC(=O)[C@H](CCCN)NC(=O)[C@H](CCCNC(N)=O)NC(=O)[C@H](Cc2ccc(-c3ccccc3)cc2)NC(=O)[C@H](C(C)C)NC(=O)[C@H](Cc2c[nH]c3ccccc23)NC(=O)[C@H](CC(=O)O)NC(=O)[C@H](Cc2ccc(O)cc2)NC(=O)[C@H](CC(N)=O)NC(=O)CSC[C@@H](C(=O)NCC(N)=O)NC(=O)[C@H](CO)NC(=O)[C@H](C(C)C)NC1=O [Compound 1112] ({CH2CO}-NYDWV[Bip][Cit][Orn][dL][Dab]LVSCG-NH2; thioether N-14)
25.4	Cc1cccc(C[C@@H]2NC(=O)[C@H](CC(=O)O)NC(=O)[C@H](Cc3ccc(OCC(=O)O)cc3)NC(=O)[C@H](Cc3ccncc3)NC(=O)CSC[C@@H](C(=O)N[C@@H](C)C(N)=O)NC(=O)[C@H]([C@@H](C)O)NC(=O)[C@H](C(C)C)NC(=O)[C@H](CC3CCCCC3)NC(=O)[C@H](Cc3cnc[nH]3)NC(=O)[C@@H](CC(C)C)NC(=O)[C@H](CCCN)NC(=O)[C@H](C(C)C)NC(=O)[C@H](Cc3ccc(-c4ccccc4)cc3)NC(=O)[C@H](C(C)C)NC2=O)c1 [Compound 1588]
5.8	CC[C@H](C)[C@@H]1NC(=O)[C@H](Cc2ccc(-c3ccccc3)cc2)NC(=O)[C@H](C(C)C)NC(=O)[C@H](Cc2c[nH]c3ccccc23)NC(=O)[C@H](CC(=O)O)NC(=O)[C@H](Cc2ccc(C(=O)O)cc2)NC(=O)[C@H](Cc2ccncc2)NC(=O)CSC[C@@H](C(=O)N[C@@H](C)C(N)=O)NC(=O)[C@H]([C@@H](C)O)NC(=O)[C@H](C(C)C)NC(=O)[C@H](CC(C)C)NC(=O)[C@H](CCN)NC(=O)[C@@H](CC(C)C)NC(=O)[C@H](CCCN)NC1=O [Compound 1055] ({CH2CO}-[4Pal][Phe(4-COOH)]DWV[Bip]I[Orn][dL][Dab]LVTCA-NH2; thioether N-14)
123	CC(C)C[C@H]1NC(=O)[C@H](CCCN)NC(=O)[C@H](CCCCN)NC(=O)[C@H](Cc2ccc(-c3ccccc3)cc2)NC(=O)[C@H](C(C)C)NC(=O)[C@H](Cc2c[nH]c3ccccc23)NC(=O)[C@H](CC(=O)O)NC(=O)[C@H](Cc2ccncc2)NC(=O)[C@H](CN)NC(=O)CSC[C@@H](C(=O)N[C@@H](CCCN)C(N)=O)NC(=O)[C@H](CCCNC(=N)N)NC(=O)[C@H](C(C)C)NC(=O)[C@H](CC2CCCCC2)NC(=O)[C@H](CCN)NC1=O [Compound 2254] ({CH2CO}-[Dap][4Pal]DWV[Bip]K[Orn][dL][Dab][Cha]VRC[Orn]-NH2; thioether N-14)
50.5	C#CC[C@H](NC(=O)[C@@H]1CSCC(=O)N[C@@H](CCC)C(=O)N[C@@H](Cc2ccc(OCC(=O)O)cc2)C(=O)N[C@@H](CC(=O)O)C(=O)N[C@@H](Cc2cccc(C)c2)C(=O)N[C@@H](Cc2ccc(OCC(=O)O)cc2)C(=O)N[C@@H](Cc2ccc(-c3ccccc3)cc2)C(=O)N[C@@H](Cc2ccc(OCC(=O)O)cc2)C(=O)N[C@@H](CCCN)C(=O)N[C@H](CC(C)C)C(=O)N[C@@H](CCN)C(=O)N[C@@H](CC2CCCCC2)C(=O)N[C@@H](C(C)C)C(=O)N[C@@H](CCC(=O)O)C(=O)N1)C(=O)O [Compound 2702] ({CH2CO}-[Nva]Y(Carboxymethyl)D[Phe(3-Me)]Y(Carboxymethyl)[Bip]Y(Carboxymethyl)[Orn][dL][Dab][Cha]VEC[Pra]-OH; thioether N-14)
13.1	Cc1cccc(C[C@@H]2NC(=O)[C@H](CC(=O)O)NC(=O)[C@H](Cc3ccc(C(=O)O)cc3)NC(=O)[C@H](Cc3ccncc3)NC(=O)CSC[C@@H](C(=O)N[C@H](CC(N)=O)C(N)=O)NC(=O)[C@H](CO)NC(=O)[C@H](C(C)C)NC(=O)[C@H](CC3CCCCC3)NC(=O)[C@H](CCN)NC(=O)[C@@H](CC(C)C)NC(=O)[C@H](CCCN)NC(=O)[C@H](Cc3ccc(OCC(=O)O)cc3)NC(=O)[C@H](Cc3ccc(-c4ccccc4)cc3)NC(=O)[C@H](Cc3ccc(OCC(=O)O)cc3)NC2=O)c1 [Compound 2313] ({CH2CO}-[4Pal][Phe(4-COOH)]D[Phe(3-Me)]Y(Carboxymethyl)[Bip]Y(Carboxymethyl)[Orn][dL][Dab][Cha]VSC[dN]-NH2; thioether N-14)
7.7	CC(C)C[C@H]1NC(=O)[C@H](CCCN)NC(=O)[C@H](C(C)C)NC(=O)[C@H](Cc2ccc(-c3ccccc3)cc2)NC(=O)[C@H](C(C)C)NC(=O)[C@H](Cc2c[nH]c3ccccc23)NC(=O)[C@H](CC(=O)O)NC(=O)[C@H](Cc2ccc(OCC(=O)O)cc2)NC(=O)[C@H](CN)NC(=O)CSC[C@@H](C(=O)N[C@@H](C)C(N)=O)NC(=O)[C@H]([C@@H](C)O)NC(=O)[C@H](C(C)C)NC(=O)[C@H](CC2CCCCC2)NC(=O)[C@H](CC(N)=O)NC1=O [Compound 1519] ({CH2CO}-[Dap]Y(Carboxymethyl)DWV[Bip]V[Orn][dL]N[Cha]VTCA-NH2; thioether N-14)
16	Cc1cccc(C[C@@H]2NC(=O)[C@H](CC(=O)O)NC(=O)[C@H](Cc3ccc(C(=O)O)cc3)NC(=O)[C@H](Cc3ccncc3)NC(=O)CSC[C@@H](C(N)=O)NC(=O)[C@H](CC(N)=O)NC(=O)[C@H](C(C)C)NC(=O)[C@H](CC3CCCCC3)NC(=O)[C@H](CCN)NC(=O)[C@@H](CC(C)C)NC(=O)[C@H](CCCN)NC(=O)[C@H](CCCNC(N)=O)NC(=O)[C@H](Cc3ccc(-c4ccccc4)cc3)NC(=O)[C@H](C(C)C)NC2=O)c1 [Compound 2271] ({CH2CO}-[4Pal][Phe(4-COOH)]D[Phe(3-Me)]V[Bip][Cit][Orn][dL][Dab][Cha]VNC-NH2; thioether N-14)
19.6	CC(C)C[C@H]1NC(=O)[C@H](CCCN)NC(=O)[C@H](CCC(=O)O)NC(=O)[C@H](Cc2ccc(-c3ccccc3)cc2)NC(=O)[C@H](C(C)C)NC(=O)[C@H](Cc2c[nH]c3ccccc23)NC(=O)[C@H](CC(=O)O)NC(=O)[C@H](Cc2ccc(-c3ccc(C(=O)O)cc3)cc2)NC(=O)[C@H](Cc2ccc(OCC(=O)O)cc2)NC(=O)CSC[C@@H](C(=O)N[C@@H](C)C(N)=O)NC(=O)[C@H]([C@@H](C)O)NC(=O)[C@H](C(C)C)NC(=O)[C@H](CC2CCCCC2)NC(=O)[C@H](CCN)NC1=O [Compound 2168]
54.9	CC(C)C[C@H]1NC(=O)[C@H](CCCN)NC(=O)[C@H](CCCNC(N)=O)NC(=O)[C@H](Cc2ccc(-c3ccccc3)cc2)NC(=O)[C@H](C(C)C)NC(=O)[C@H](Cc2c[nH]c3ccccc23)NC(=O)[C@H](CC(=O)O)NC(=O)[C@H](Cc2ccc(OCC(=O)O)cc2)NC(=O)[C@H](CN)NC(=O)CSC[C@@H](C(=O)N[C@@H](C)C(N)=O)NC(=O)[C@H]([C@@H](C)O)NC(=O)[C@H](C(C)C)NC(=O)[C@H](Cc2ccccn2)NC(=O)[C@H](CCN)NC1=O [Compound 1349]

Same assay, conditions: read-out: Jurkat HPD1_PDL1 IC50; Jurkat-PD-1 cells, PE-labeled PD-L1-Ig 20 nM final

Compound	IC50 [nM]
CCC(C)[C@@H]1NC(=O)[C@H](Cc2ccc(-c3ccccc3)cc2)NC(=O)[C@H](Cc2c[nH]cn2)NC(=O)[C@H](Cc2c[nH]c3ccccc23)NC(=O)[C@H](CC(=O)O)NC(=O)[C@H](Cc2ccc(OCC(=O)O)cc2)NC(=O)[C@H](C(C)O)NC(=O)CSC[C@@H](C(=O)N[C@@H](CC(N)=O)C(=O)O)NC(=O)[C@H](CO)NC(=O)[C@H](C(C)C)NC(=O)[C@H](CC(C)C)NC(=O)[C@H](CCN)NC(=O)[C@@H](CC(C)C)NC(=O)[C@H](CCCN)NC1=O (stereo partly drawn) [Compound 2580] ({CH2CO}-[Thr(3ξ)]Y(Carboxymethyl)DWH[Bip][Ile(3ξ)][Orn][dL][Dab]LVSCN-OH; thioether N-14)	45
